In publication PMC6886544:

Tests used:
[1] = PAMPA (parallel artificial membrane permeability assay); assay type: in vitro ADME; conditions: pH 7.4, 500 µM, 16 hours
Experimental: masses and 0.02 Da for fragment ions. FDR was adjusted to 1% on peptide spectrum match […]
Microsomal stability (phase I) assay.
Metabolic stability under oxidative conditions was measured in liver microsomes from different species by LC/MS-based measuring of depletion of compound at a concentration of 3 µM over time up to 50 minutes (HLM) or 60 minutes (MLM) at 37 °C. Based on the compound half-life t1/2, the in vitro intrinsic clearance CLint was calculated.
Plasma stability was measured by LC/MS-based determination of the percentage of remaining compounds at a concentration of 5 µM after incubation in plasma obtained from different species […]
Assessment of plasma protein binding was measured by equilibrium dialysis by incubating plasma with the compound of interest at a concentration of 5 µM for 6 h at 37 °C followed by LC/MS-based determination of final compound concentrations.
PAMPA (Parallel artificial membrane permeability assay). […]
temperature in a wet chamber, the optical density of the solution in the receiver well was measured between 250 and 500 nm in intervals of 10 nm. The percent flux was calculated from […]

EGFR-L858R/T790M = EGFR-L858R/T790M (Homo sapiens, UniProt P00533, L858R/T790M); assay: Kinetic characterization (Ki, kinact), EGFR-L858R/T790M
Sequence of EGFR-L858R/T790M (P00533 25-1210 T790M/L858R): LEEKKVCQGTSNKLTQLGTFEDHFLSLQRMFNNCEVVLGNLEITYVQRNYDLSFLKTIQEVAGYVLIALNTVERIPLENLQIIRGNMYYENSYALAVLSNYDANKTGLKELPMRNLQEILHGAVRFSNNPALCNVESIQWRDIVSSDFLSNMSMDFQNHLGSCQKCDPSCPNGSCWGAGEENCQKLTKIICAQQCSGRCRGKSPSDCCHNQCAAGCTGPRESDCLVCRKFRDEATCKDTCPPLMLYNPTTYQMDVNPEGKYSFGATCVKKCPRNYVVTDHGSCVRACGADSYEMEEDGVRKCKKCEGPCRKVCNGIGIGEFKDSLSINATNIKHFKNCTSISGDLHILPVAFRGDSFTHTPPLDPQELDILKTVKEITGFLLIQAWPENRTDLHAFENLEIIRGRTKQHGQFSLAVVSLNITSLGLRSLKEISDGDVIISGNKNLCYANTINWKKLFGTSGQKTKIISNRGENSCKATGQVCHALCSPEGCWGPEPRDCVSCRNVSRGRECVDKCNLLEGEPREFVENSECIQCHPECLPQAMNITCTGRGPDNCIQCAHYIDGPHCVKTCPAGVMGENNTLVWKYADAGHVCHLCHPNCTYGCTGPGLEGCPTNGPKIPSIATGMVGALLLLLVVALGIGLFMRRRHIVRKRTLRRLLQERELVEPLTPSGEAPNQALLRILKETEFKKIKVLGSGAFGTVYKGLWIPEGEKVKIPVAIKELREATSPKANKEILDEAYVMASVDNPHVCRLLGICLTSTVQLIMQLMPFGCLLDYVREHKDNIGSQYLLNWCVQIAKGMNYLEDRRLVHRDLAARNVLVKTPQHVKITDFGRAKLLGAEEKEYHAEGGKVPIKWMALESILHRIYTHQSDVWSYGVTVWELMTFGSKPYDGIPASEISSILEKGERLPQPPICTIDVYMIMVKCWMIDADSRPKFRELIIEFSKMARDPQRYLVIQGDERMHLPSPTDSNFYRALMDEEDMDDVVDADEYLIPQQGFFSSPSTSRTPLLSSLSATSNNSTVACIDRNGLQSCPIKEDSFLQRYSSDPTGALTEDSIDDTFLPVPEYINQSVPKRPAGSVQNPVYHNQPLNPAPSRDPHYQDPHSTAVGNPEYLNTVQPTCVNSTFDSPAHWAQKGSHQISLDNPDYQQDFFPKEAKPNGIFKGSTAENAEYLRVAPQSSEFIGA

EGFR-T790M [2] = molecular target: T1, EGFR-T790M (Homo sapiens, UniProt P00533, T790M); assay: Mass spectrometry analysis of covalent bond formation; assay type: binding; parameters: made in house; host or cells: Sf9 insect cells (BacMagic system); conditions: EGFR-T790M incubated with inhibitor on ice for 1 h
Description: captured and quantified using a FUJI LAS3000 system with Science Lab 2001 ImageGauge 4.0 software (Fujifilm Medial Systems, Stamford CT, USA).
Rabbit antibodies specific for phospho-EGFR (Tyr1045), EGFR, Akt, phospho-Akt (Ser473), p42/44 mitogen-activated protein kinase (MAPK), phospho-p44/42 MAPK (Thr202/Tyr204), S6 ribosomal protein, phospho-S6 ribosomal protein (Ser235/236), mouse anti-β-actin antibody as well as HRP-conjugated anti-rabbit and anti-mouse secondary antibodies were purchased from Cell Signaling (Frankfurt, Germany; Beverly, MA).
Mass spectrometry experiments.
We used the drug-resistant mutant EGFR-T790M variant for MS experiments. We incubated a […]
glycerol, 1 mM TCEP, pH 8) on ice for 1 h. We analyzed the aliquots by ESI-MS using an Thermo Fisher Scientific Dionex UltiMate 3000 HPLC system connected to a Thermo Fisher Scientific Velos Pro (2d ion trap). Therefore, 5 μL of sample was injected and separated using a Vydac 214TP C4 5 μm column (150 mm x 2.1 mm) starting at 20% of solvent B for 5 minutes followed by a gradient up to 90% of solvent B over 14 min with a flow rate of 210 μL/min with 0.1% TFA in water as solvent A and 0.1% TFA in MeCN as solvent B. A mass range of 700 to 2000 m/z was scanned and raw data was deconvoluted and analyzed with MagTran software (Z.Q. Zhang, A.G. […]
Target sequence in this assay (P00533 712-979 T790M limits assumed): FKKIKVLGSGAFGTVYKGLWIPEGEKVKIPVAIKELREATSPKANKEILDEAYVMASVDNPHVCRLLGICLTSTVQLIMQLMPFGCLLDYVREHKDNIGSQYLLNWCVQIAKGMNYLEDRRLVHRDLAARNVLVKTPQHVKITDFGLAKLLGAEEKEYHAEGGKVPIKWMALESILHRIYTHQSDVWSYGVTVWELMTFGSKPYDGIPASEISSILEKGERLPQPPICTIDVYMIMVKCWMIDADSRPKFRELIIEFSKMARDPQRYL

ErbB4 = ErbB4 (Homo sapiens, UniProt Q15303); assay: SelectScreen kinase profiling, ErbB4; assay type: biochemical; conditions: mean ± SD of one measurement in duplicates
Sequence of ErbB4 (Q15303 26-1308): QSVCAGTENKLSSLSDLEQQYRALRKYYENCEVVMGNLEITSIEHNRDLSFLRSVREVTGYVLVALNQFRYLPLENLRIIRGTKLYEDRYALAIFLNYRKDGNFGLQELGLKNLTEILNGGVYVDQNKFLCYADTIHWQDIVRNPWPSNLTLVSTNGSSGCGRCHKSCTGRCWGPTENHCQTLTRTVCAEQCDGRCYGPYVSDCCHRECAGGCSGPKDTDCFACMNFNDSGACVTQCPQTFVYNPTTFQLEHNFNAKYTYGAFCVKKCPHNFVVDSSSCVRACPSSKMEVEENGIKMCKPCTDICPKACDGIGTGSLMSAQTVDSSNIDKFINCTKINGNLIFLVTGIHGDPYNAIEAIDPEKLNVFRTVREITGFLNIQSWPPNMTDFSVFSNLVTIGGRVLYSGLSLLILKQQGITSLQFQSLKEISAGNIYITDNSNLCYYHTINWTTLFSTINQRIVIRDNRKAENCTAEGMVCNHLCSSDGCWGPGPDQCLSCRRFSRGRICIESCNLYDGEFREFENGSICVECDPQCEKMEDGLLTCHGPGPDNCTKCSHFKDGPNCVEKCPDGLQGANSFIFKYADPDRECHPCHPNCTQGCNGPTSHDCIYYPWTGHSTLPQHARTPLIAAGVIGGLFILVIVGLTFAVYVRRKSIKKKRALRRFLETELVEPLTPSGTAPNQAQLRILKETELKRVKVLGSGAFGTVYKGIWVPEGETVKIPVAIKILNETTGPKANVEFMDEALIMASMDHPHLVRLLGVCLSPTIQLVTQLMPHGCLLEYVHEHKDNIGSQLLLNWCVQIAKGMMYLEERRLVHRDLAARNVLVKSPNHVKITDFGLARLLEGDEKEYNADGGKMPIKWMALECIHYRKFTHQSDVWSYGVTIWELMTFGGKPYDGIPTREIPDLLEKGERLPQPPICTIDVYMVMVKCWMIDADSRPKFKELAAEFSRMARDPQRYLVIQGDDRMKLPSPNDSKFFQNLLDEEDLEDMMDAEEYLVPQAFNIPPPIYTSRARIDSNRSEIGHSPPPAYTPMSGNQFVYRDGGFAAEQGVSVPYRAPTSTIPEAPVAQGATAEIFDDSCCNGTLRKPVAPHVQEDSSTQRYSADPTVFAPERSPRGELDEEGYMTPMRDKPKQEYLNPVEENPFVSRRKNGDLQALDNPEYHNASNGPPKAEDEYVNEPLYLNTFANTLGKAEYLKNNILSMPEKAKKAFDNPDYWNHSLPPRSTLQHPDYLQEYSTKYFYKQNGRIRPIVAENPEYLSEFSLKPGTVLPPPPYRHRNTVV
Experimental: (§1) Kinase profiling of compound 17a at a concentration of 1 µM generated with the SelectScreen® Profiling Service from Life Technologies.
(§2) Figure S2. Kinase profiling of compound 17a, Illustration as waterfall plot. 9 Kinases harboring a Cysteine isostructural to Cys797 in EGFR are highlighted
(§3) Kinase % inhibition Kinase % inhibition […]
(§4) aValues are the mean ± SD of one measurement in duplicates; bKinases harboring a Cysteine isostructural to Cys797 […]
(§5) (1 picture or pasted object on this page, not shown here)

EGFR-T790M [3] = molecular target: T1, EGFR-T790M; assay: SelectScreen kinase profiling, EGFR-T790M; assay type: biochemical; conditions: mean ± SD of one measurement in duplicates
Experimental: as §1, §2, §3, §4, §5

ACVR1B = ACVR1B (Homo sapiens, UniProt P36896); assay: SelectScreen kinase profiling, ACVR1B; assay type: biochemical; conditions: mean ± SD of one measurement in duplicates
Experimental: as §1, §2, §3, §4, §5

EGFR-L858R = EGFR-L858R (Homo sapiens, UniProt P00533, L858R); assay: SelectScreen kinase profiling, EGFR-L858R; assay type: biochemical; conditions: mean ± SD of one measurement in duplicates
Sequence of EGFR-L858R (P00533 25-1210 L858R): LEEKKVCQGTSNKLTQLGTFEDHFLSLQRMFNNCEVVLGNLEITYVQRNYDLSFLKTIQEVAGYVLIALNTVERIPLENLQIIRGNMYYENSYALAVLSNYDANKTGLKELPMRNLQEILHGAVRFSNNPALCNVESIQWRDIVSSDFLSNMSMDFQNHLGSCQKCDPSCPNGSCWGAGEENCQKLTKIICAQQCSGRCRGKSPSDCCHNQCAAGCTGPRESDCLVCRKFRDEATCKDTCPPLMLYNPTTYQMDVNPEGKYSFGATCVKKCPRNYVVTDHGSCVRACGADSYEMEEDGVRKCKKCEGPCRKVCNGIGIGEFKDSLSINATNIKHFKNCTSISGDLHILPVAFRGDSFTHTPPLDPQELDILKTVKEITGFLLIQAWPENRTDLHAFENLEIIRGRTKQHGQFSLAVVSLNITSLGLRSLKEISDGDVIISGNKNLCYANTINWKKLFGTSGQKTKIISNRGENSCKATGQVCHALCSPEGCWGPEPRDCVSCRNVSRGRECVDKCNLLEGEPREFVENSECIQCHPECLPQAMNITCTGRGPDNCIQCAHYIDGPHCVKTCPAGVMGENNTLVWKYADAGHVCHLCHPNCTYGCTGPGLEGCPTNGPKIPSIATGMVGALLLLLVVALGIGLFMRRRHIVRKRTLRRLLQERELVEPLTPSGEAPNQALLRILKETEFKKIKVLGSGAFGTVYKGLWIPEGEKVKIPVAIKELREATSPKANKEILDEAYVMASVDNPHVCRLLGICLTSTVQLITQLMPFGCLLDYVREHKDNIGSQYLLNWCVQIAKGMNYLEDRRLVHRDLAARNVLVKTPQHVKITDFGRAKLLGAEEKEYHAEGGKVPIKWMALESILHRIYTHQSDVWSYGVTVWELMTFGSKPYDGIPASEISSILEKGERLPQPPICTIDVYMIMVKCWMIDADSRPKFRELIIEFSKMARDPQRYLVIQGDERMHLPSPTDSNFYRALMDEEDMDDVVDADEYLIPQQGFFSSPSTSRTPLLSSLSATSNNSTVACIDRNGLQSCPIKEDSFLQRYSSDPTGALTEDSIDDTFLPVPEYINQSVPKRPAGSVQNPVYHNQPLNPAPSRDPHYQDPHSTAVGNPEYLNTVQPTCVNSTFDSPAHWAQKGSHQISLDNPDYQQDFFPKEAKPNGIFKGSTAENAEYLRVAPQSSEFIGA
Experimental: as §1, §2, §3, §4, §5

SRC = SRC (Homo sapiens, UniProt P12931); assay: SelectScreen kinase profiling, SRC; assay type: biochemical; conditions: mean ± SD of one measurement in duplicates
Experimental: as §1, §2, §3, §4, §5

EPHB2 = EPHB2 (Homo sapiens, UniProt P29323); assay: SelectScreen kinase profiling, EPHB2; assay type: biochemical; conditions: mean ± SD of one measurement in duplicates
Sequence of EPHB2 (P29323 19-1055): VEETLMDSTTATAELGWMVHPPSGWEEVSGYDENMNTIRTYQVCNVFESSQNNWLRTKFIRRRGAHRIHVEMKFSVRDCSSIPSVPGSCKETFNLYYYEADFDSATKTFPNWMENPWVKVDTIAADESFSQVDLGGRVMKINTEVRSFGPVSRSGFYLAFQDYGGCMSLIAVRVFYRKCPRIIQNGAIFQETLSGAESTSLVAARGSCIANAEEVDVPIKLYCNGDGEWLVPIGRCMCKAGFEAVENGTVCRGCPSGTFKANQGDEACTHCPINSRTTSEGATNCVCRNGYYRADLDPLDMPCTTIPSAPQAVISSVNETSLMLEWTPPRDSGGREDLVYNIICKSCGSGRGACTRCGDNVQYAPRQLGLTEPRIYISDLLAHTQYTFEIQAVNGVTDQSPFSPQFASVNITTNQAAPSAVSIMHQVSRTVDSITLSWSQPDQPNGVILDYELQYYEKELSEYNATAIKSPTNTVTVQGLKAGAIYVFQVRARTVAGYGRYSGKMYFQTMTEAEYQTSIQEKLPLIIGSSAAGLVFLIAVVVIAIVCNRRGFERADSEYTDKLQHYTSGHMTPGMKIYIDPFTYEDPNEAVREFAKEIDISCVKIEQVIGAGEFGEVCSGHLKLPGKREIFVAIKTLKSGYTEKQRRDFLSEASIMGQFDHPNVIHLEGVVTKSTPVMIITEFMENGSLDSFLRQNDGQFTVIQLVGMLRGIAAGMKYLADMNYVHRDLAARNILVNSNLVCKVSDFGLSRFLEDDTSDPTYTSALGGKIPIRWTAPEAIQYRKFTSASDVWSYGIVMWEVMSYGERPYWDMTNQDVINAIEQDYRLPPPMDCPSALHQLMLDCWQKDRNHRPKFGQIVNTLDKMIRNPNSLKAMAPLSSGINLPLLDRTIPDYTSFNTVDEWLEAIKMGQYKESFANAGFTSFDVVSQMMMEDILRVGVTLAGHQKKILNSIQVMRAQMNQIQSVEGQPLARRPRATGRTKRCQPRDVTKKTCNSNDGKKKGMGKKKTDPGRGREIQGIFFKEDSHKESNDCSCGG
Experimental: as §1, §2, §3, §4, §5

PAMPA flux [1] | Ki (EGFR-L858R/T790M) | kinact (EGFR-L858R/T790M) | kinact/KI (EGFR-L858R/T790M) | covalent labelling by tandem mass spectrometry (EGFR-T790M [2]) | inhibition at 1 µM (ErbB4) | inhibition at 1 µM (EGFR-T790M [3]) | inhibition at 1 µM (ACVR1B) | inhibition at 1 µM (EGFR-L858R) | inhibition at 1 µM (SRC) | inhibition at 1 µM (EPHB2) | Structure (SMILES)
88% | 0.4 ± 0.1 nM | 0.00283 s⁻¹ | 8.08e+06 ± 770000 M⁻¹ s⁻¹ | specific single alkylation of Cys797 | – | – | – | – | – | – | C=CC(=O)Nc1cccc(-c2c(-c3ccc(N4CCN(C)CC4)cc3)[nH]c3ncnc(OCC(C)C)c23)c1 [Compound 19h]
– | – | – | – | – | 100 ± 1% | 89 ± 2% | 89% | 89 ± 6% | 81 ± 1% | 72 ± 3% | C=CC(=O)Nc1cccc(-c2c(-c3ccc(CN4CCN(C)CC4)cc3)[nH]c3ncnc(OC)c23)c1 [Compound 17a]
